Structures can show the parent of a compound that is named as a salt.
Test system: Eimeria tenella K-2
Experiment: anticoccidial test in chicks (Example 4)
Conditions: for Caecal lession (numbers of chicks), ++: grade ++ (middle); for Caecal lession (numbers of chicks), +++: grade +++ (heavy)
[1] = 0.025 % in diet, groups of 10 chicks
[2] = 0.0125 % in diet, groups of 10 chicks
[3] = 0.0033 % in diet, groups of 10 chicks
[4] = 0.0066 % in diet, groups of 10 chicks

| Structure (SMILES) | Survival ratio (0.0125 % in diet) [%] | Survival ratio (0.025 % in diet) [%] | Caecal lession (numbers of chicks), ++ [1] | Caecal lession (numbers of chicks), +++ [2] | Caecal lession (numbers of chicks), +++ [1] | Survival ratio (0.0033 % in diet) [%] | Survival ratio (0.0066 % in diet) [%] | Caecal lession (numbers of chicks), + (grade + (light), 0.0066 % in diet, groups of 10 chicks) | Caecal lession (numbers of chicks), ++ [3] | Caecal lession (numbers of chicks), ++ [4] | Caecal lession (numbers of chicks), +++ [3] | Caecal lession (numbers of chicks), +++ [4] |
| --- | --- | --- | --- | --- | --- | --- | --- | --- | --- | --- | --- | --- |
| CCCc1ncc(C[n+]2ccccc2C)c(N)n1 [Amprolium hydrochloride, reference compound] | 40 | 70 | 2 numbers of chicks | 10 numbers of chicks | 8 numbers of chicks |  |  |  |  |  |  |  |
| N=C(N/N=C/c1ccc(Cl)cc1)N/N=C/c1ccc(Cl)cc1 [Robenidine hydrochloride, reference compound] |  |  |  |  |  | 80 | 100 | 2 numbers of chicks | 2 numbers of chicks | 5 numbers of chicks | 8 numbers of chicks | 3 numbers of chicks |
| Cc1nc(C)c(Cl)c(O)c1Cl [Clopidol, reference compound] | 50 | 70 | 4 numbers of chicks | 10 numbers of chicks | 6 numbers of chicks |  |  |  |  |  |  |  |
